Measured values from US20070225279A1, “Therapeutic combinations for the treatment of depression” (Wyeth, priority 2006, published 2007).

How the values were obtained:
[1] = tested on: Male Swiss Webster mice; test: Tail suspension test; format: in vivo; conditions: for decrease in immobility time: cotreated 30 minutes prior to the test
Description: Compound 1, [drawing 11] was used to exemplify the effectiveness of compounds of the present invention in the tail suspension test. While not a direct model of depression, the tail suspension test is an assay that can evaluate antidepressant-like effects of drugs. […] Specifically, they decrease the amount of time the mice spend immobile after being hung upside down by their tails during the test. It is impossible to determine if a mouse is indeed depressed. However, the fact that clinically effective antidepressants reduce immobility lends predictive validity to the model. Animals
Male Swiss Webster mice (Charles River) weighing 25-35 g were used throughout this study. They were housed in groups of five per cage in an AALAC-accredited facility that was maintained on a 12-h light dark cycle (lights on at 0600 h) and had free access to food and water. Experimental groups consisted of 12 mice, randomly assigned to treatment groups. All experiments were performed between 9:00 AM and noon in accordance to the Guide for the Care and Use of Laboratory Animals as adopted and promulgated by the National Institutes of Health (Pub. 85-23, 1985).
Solutions of Compound 1 and paroxetine were freshly prepared; each dissolved in distilled water. All drugs were injected i.p. at a volume of 10 ml/kg body weight. Combination treatments were cotreated, 30 minutes prior to the test.
The procedure followed in this study was a variant of the one originally described by Steru et al. (1985). 30 minutes following treatment, the mice were suspended upside down by the tail using adhesive laboratory tape (VWR International), to a flat metal bar connected to a strain gauge within a tail suspension chamber (Med Associates). The time spent immobile during a 6-minute test session was automatically recorded. 8 mice were simultaneously tested within separate chambers. Data collected were expressed as a mean of immobility time and statistical analysis was performed using a one-way ANOVA with least significant difference (LSD) post-hoc test.

[2] = tested on: Male Swiss Webster mice; conditions: general statement on clinically effective drugs; cited from earlier work

## Fc1ccc([C@@H]2CCNC[C@H]2COc2ccc3c(c2)OCO3)cc1 (relative stereo) [paroxetine, trans-(−)-3-[(1,3-benzodioxol-5-yloxy)methyl]-4-(4-fluorophenyl)piperidine, reference compound]
[1]; 30 mg/kg paroxetine alone, i.p., 30 minutes prior to the test, ns
  decrease in immobility: 18%

## c1cc2c3c(c1)[C@H]1CCC[C@H]1N3CCNC2 [Compound 1]
[1]; 1 mg/kg Compound 1 in combination with 30 mg/kg paroxetine, i.p.
  decrease in immobility time: 24%
[1]; 3 mg/kg Compound 1 in combination with 30 mg/kg paroxetine, i.p.
  decrease in immobility time: 35%
[1]; Compound 1 alone, 1 or 3 mg/kg i.p., 30 minutes prior to the test, 6-minute session
  antidepressant-like effect (immobility time) in tail suspension test: Neither dose of Compound 1 (1 or 3 mg/kg) produced an antidepressant-like effect alone

## CNCCC(Oc1ccc(C(F)(F)F)cc1)c1ccccc1 (centres unmarked) [fluoxetine, N-methyl-3-(p-trifluoromethylphenoxy)-3-phenylpropylamine]
[2]
  effectiveness in tail suspension assay (decrease of time spent immobile): effective in this assay
